Source: patent US8785374B2, “Inhibitors of mammalian tight junction opening” (Alba Therapeutics Corporation, priority 2007, dated 2014)
Non-standard residues stand in square brackets, D forms with d. No end group written: not given here. pGlu = O=C1CC[C@@H](C(=O)O)N1; Gip = not defined here

Assays:
[1] = system: CaCo2 monolayers (tight junctions); assay: Inhibition of agonist-induced Lucifer Yellow flux through CaCo2 monolayers; conditions: for Reduced LY Permeability: inhibition of the increase in Lucifer Yellow permeability induced by SEQ ID NO:70 (FCIGRL), CaCo2 monolayers
Source text: (§1) Measurement of the Inhibition of the Decrease in Trans Epithelial Electric Resistance (TEER) and Epithelial Flux of a Fluorescent Marker Lucifer Yellow
(§2) Antagonists of tight junctions can be identified by their ability to prevent or decrease the enhancement of the flux of compounds (e.g. Lucifer Yellow) through the monolayer induced by agonists of tight junctions (e.g., SEQ ID NO: 70). Antagonists of tight junctions can also be identified by their ability to prevent the decrease in TEER induced by agonists of tight junctions (e.g., SEQ ID NO: 70).
(§3) Tight junction antagonists can be identified using the following method:
(§4) Prepare Modified Hank's Balanced Salt Solution (MHBSS) by obtaining IL bottle of HBSS removing 10 ml of HBSS and replacing it with 10 ml HEPES buffer pH 7.0. Adjust pH to 7.4±0.1 using concentrated NaOH (10N).
(§5) Remove Caco-2 cells from incubator, grown on 12-well, […], polycarbonate Transwell® filters (Corning) and record passage number, date cells seeded and age in days.
(§6) Aspirate cell culture medium from both the apical (AP) and basolateral (BL) compartments, replacing with 0.5 ml and 1.5 ml of MHBSS, respectively. Incubate cells at 37° C. for 30 minutes.
(§7) Prepare a stock solution of the Antagonist Pretreatment Solution by dissolving the appropriate amount of antagonist in MHBSS. Vortex or sonicate the solution until it is clear then adjust pH to 7.4±0.1 using 1N NaOH. Preincubate each filter for 30 min with these solutions at 37° C. and 50 RPM.
(§8) Prepare stock solutions of Antagonist Treatment Solution by dissolving appropriate amounts of antagonist and agonist (for example, a peptide agonist such as a peptide having the sequence FCIGRL (SEQ ID NO: 70)) in 7.5 mM Lucifer Yellow solution in MHBSS. Vortex or sonicate the solution until it is clear then adjust pH to 7.4±0.1 using 1N NaOH.
(§9) Aspirate Antagonist Pretreatment Solution from the apical compartment of each filter (n=3 per condition) and replace with 0.5 ml of control and test solutions.
(§10) Place all plates into incubator set at 37° C. (±0.2), 50 RPM (±5) for a total of 180 minutes.
At t=60, 120 and 180 minutes remove 100 μl from each basolateral compartment and place it in a 96-well plate for Lucifer Yellow analysis, replace with 100 μl of HBSS.
Make a Lucifer Yellow standard curve with the following dilutions (7500 μM, 3750 μM, 750 μM, 375 μM, 75 μM, 37.5 μM, 7.5 μM, 3.75 μM, 0.75 μM) and pipette 100 μL of each into a 96-well plate except for the first three standards mentioned above which require a 1:10 dilution prior to transferring to the 96-well plate.
At t=0 make 1:10 dilutions of each starting Antagonist Treatment Solution mentioned above and pipette 100 μL of each into a 96-well plate.
At t=180 make 1:10 dilutions of Antagonist Treatment Solution from the apical compartment of each filter and pipette 100 μL of each into the 96-well plate.
Analyze each 96-well plate in a Tecan Spectra Fluor Plus using Magellan at 485 and 535 nm.
(§11) Cells: Caco-2 cells passage 40-60 grown on Transwell® plates for 21-28 days
(§12) SEQ ID NO: 70 is a 6-mer peptide tight junction agonist having the sequence FCIGRL. See US patent publication US 2005/0059593 A1. In the following tables + indicates attenuation of the effects of the tight junction agonist were observed and − indicates no attenuation of the effects of the tight junction agonist were observed.

[2] = system: CaCo2 monolayers (tight junctions); assay: Inhibition of agonist-induced decrease in trans epithelial electric resistance (TEER) of CaCo2 monolayers; conditions: for Prevented TEER Reduction: inhibition of the reduction in TEER induced by SEQ ID NO:70 (FCIGRL), CaCo2 monolayers
Source text: as §1, §2, §3, §4, §5, §6
Using the MilliCell®-ERS instrument (Millipore), measure and record the transepithelial electrical resistance (TEER) across each filter and record.
as §7, §8, §9, §10
At t=30, 60, 120 and 180 minutes, measure and record the transepithelial electrical resistance (TEER) across each filter using the MilliCell-ERS instrument.
as §11, §12

[3] = agonist alone, compared to vehicle alone

| Substance | Reduced LY Permeability [1] | Prevented TEER Reduction [2] | Enhancement of Lucifer Yellow permeability through CaCo2 monolayers [1, 3] [fold] | Decrease of TEER in CaCo2 monolayers [2, 3] [fold] |
| --- | --- | --- | --- | --- |
| (d)Gln-(d)Pro-Gly ([dQ]-[dP]-Gly) [SEQ ID NO: 12] | − | − |  |  |
| (d)Gln-Pro-Gly ([dQ]-Pro-Gly) [SEQ ID NO: 10] | + | + |  |  |
| Ala-Pro-Gly (APG; Tight junction antagonist) [SEQ ID NO: 7] | + | + |  |  |
| Ala-Pro-Gly (APG; Tight junction antagonist) [SEQ ID NO: 17] | + | + |  |  |
| Arg-Pro-Gly (RPG; Tight junction antagonist) [SEQ ID NO: 20] | + | + |  |  |
| Asn-Pro-Gly (NPG; Tight junction antagonist) [SEQ ID NO: 27] | + | + |  |  |
| Asp-Pro-Gly (DPG; Tight junction antagonist) [SEQ ID NO: 19] | − | − |  |  |
| FCIGRL [FCIGRL, reference compound] |  |  | 51 | 16 |
| GGVLVQPG [SEQ ID NO: 1, reference compound] | + | + |  |  |
| GVLVQPG [SEQ ID NO: 2] | − | − |  |  |
| Gip-Pro-Ile ([Gip]-Pro-Ile; reading uncertain; also: printed as Gip-Pro-Ile) [SEQ ID NO: 67] | − | + |  |  |
| Gln-(d)Pro-Gly (Gln-[dP]-Gly) [SEQ ID NO: 11] | + | + |  |  |
| Gln-Ala-Gly (QAG; Tight junction antagonist) [SEQ ID NO: 8] | + | + |  |  |
| Gln-Pro-Ala (QPA; Tight junction antagonist) [SEQ ID NO: 9] | + | + |  |  |
| Gln-Pro-Gly (QPG; Tight junction antagonist) [SEQ ID NO: 6] | + | + |  |  |
| Glp-Arg-Gly ([pGlu]-Arg-Gly) [SEQ ID NO: 47] | − | − |  |  |
| Glp-Asn-Gly ([pGlu]-Asn-Gly) [SEQ ID NO: 46] | − | − |  |  |
| Glp-Asp-Gly ([pGlu]-Asp-Gly) [SEQ ID NO: 50] | − | − |  |  |
| Glp-Gln-Gly ([pGlu]-Gln-Gly) [SEQ ID NO: 37] | − | − |  |  |
| Glp-Glu-Gly ([pGlu]-Glu-Gly) [SEQ ID NO: 41] | − | − |  |  |
| Glp-Gly-Gly ([pGlu]-Gly-Gly) [SEQ ID NO: 48] | − | − |  |  |
| Glp-His-Gly ([pGlu]-His-Gly) [SEQ ID NO: 45] | − | − |  |  |
| Glp-Ile-Gly ([pGlu]-Ile-Gly) [SEQ ID NO: 43] | − | − |  |  |
| Glp-Leu-Gly ([pGlu]-Leu-Gly) [SEQ ID NO: 52] | − | − |  |  |
| Glp-Lys-Gly ([pGlu]-Lys-Gly) [SEQ ID NO: 39] | − | − |  |  |
| Glp-Met-Gly ([pGlu]-Met-Gly) [SEQ ID NO: 51] | − | − |  |  |
| Glp-Phe-Gly ([pGlu]-Phe-Gly) [SEQ ID NO: 40] | − | − |  |  |
| Glp-Pro-Arg ([pGlu]-Pro-Arg) [SEQ ID NO: 62] | − | − |  |  |
| Glp-Pro-Asn ([pGlu]-Pro-Asn) [SEQ ID NO: 54] | − | + |  |  |
